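Five compound concentrations were applied to cells in 96-well plates for 48 hours; endpoints were derived by simple linear interpolation of the resulting dose-response curve. At the TGI there is no net growth.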
How the values were obtained:
Experiment in all cases: DTP human tumour cell line panel, 48 h
[1] = test system: 786-0 renal
[2] = test system: A549 NSCLC
[3] = test system: ACHN renal
[4] = test system: BT-549 breast
[5] = test system: CAKI-1 renal
[6] = test system: CCRF-CEM leukemia
[7] = test system: COLO 205 colon
[8] = test system: DU-145 prostate
[9] = test system: EKVX NSCLC
[10] = test system: HCC-2998 colon
[11] = test system: HCT-116 colon
[12] = test system: HCT-15 colon
[13] = test system: HL-60(TB) leukemia
[14] = test system: HOP-62 NSCLC
[15] = test system: HOP-92 NSCLC
[16] = test system: HS 578T breast
[17] = test system: HT29 colon
[18] = test system: IGROV1 ovarian
[19] = test system: K-562 leukemia
[20] = test system: KM12 colon
[21] = test system: LOX IMVI melanoma
[22] = test system: M14 melanoma
[23] = test system: MALME-3M melanoma
[24] = test system: MCF7 breast
[25] = test system: MDA-MB-231 breast
[26] = test system: MDA-MB-435
[27] = test system: MDA-N
[28] = test system: MOLT-4 leukemia
[29] = test system: NCI-H226 lung
[30] = test system: NCI-H460 lung
[31] = test system: NCI-H522 lung
[32] = test system: NCI/ADR-RES ovarian
[33] = test system: OVCAR-4 ovarian
[34] = test system: OVCAR-5 ovarian
[35] = test system: OVCAR-8 ovarian
[36] = test system: PC-3 prostate
[37] = test system: RPMI-8226 leukemia
[38] = test system: RXF 393 renal
[39] = test system: SF-268 CNS
[40] = test system: SF-295 CNS
[41] = test system: SF-539 CNS
[42] = test system: SK-MEL-2 melanoma
[43] = test system: SK-MEL-28 melanoma
[44] = test system: SK-OV-3 ovarian
[45] = test system: SN12C renal
[46] = test system: SNB-19 CNS
[47] = test system: SNB-75 CNS
[48] = test system: SR leukemia
[49] = test system: SW-620 colon
[50] = test system: T-47D breast
[51] = test system: TK-10 renal
[52] = test system: U251 CNS
[53] = test system: UACC-257 melanoma
[54] = test system: UACC-62 melanoma
[55] = test system: UO-31 renal
[56] = test system: A498 renal
[57] = test system: NCI-H23 lung
[58] = test system: OVCAR-3 ovarian
[59] = test system: SK-MEL-5 melanoma

N#C/C(=C\c1ccc(F)cc1)c1nc2ccccc2c(=O)[nH]1
TGI [1]: > 100 µM
TGI [2]: > 100 µM
TGI [3]: > 100 µM
TGI [4]: > 100 µM
TGI [5]: > 100 µM
TGI [6]: > 100 µM
TGI [7]: > 100 µM
TGI [8]: > 100 µM
TGI [9]: > 100 µM
TGI [10]: > 100 µM
TGI [11]: > 100 µM
TGI [12]: > 100 µM
TGI [13]: > 100 µM
TGI [14]: > 100 µM
TGI [15]: > 100 µM
TGI [16]: > 100 µM
TGI [17]: > 100 µM
TGI [18]: > 100 µM
TGI [19]: > 100 µM
TGI [20]: > 100 µM
TGI [21]: > 100 µM
TGI [22]: > 100 µM
TGI [23]: > 100 µM
TGI [24]: > 100 µM
TGI [25]: > 100 µM
TGI [26]: > 100 µM
TGI [27]: > 100 µM
TGI [28]: > 100 µM
TGI [29]: > 100 µM
TGI [30]: > 100 µM
TGI [31]: > 100 µM
TGI [32]: > 100 µM
TGI [33]: > 100 µM
TGI [34]: > 100 µM
TGI [35]: > 100 µM
TGI [36]: > 100 µM
TGI [37]: > 100 µM
TGI [38]: > 100 µM
TGI [39]: > 100 µM
TGI [40]: > 100 µM
TGI [41]: > 100 µM
TGI [42]: > 100 µM
TGI [43]: > 100 µM
TGI [44]: > 100 µM
TGI [45]: > 100 µM
TGI [46]: > 100 µM
TGI [47]: 74.5 µM
TGI [48]: > 100 µM
TGI [49]: > 100 µM
TGI [50]: > 100 µM
TGI [51]: > 100 µM
TGI [52]: > 100 µM
TGI [53]: > 100 µM
TGI [54]: > 100 µM
TGI [55]: > 100 µM

c1ccc(CCCNc2nnnc3ccccc23)cc1
TGI [1]: > 100 µM
TGI [56]: > 100 µM
TGI [2]: > 100 µM
TGI [3]: > 100 µM
TGI [4]: > 100 µM
TGI [5]: > 100 µM
TGI [6]: > 100 µM
TGI [7]: > 100 µM
TGI [8]: > 100 µM
TGI [9]: > 100 µM
TGI [11]: > 100 µM
TGI [12]: > 100 µM
TGI [13]: > 100 µM
TGI [14]: > 100 µM
TGI [15]: > 100 µM
TGI [16]: > 100 µM
TGI [17]: > 100 µM
TGI [18]: > 100 µM
TGI [19]: > 100 µM
TGI [20]: > 100 µM
TGI [21]: > 100 µM
TGI [22]: > 100 µM
TGI [23]: > 100 µM
TGI [24]: > 100 µM
TGI [25]: > 100 µM
TGI [26]: > 100 µM
TGI [27]: > 100 µM
TGI [28]: > 100 µM
TGI [29]: > 100 µM
TGI [57]: > 100 µM
TGI [30]: > 100 µM
TGI [31]: > 100 µM
TGI [32]: > 100 µM
TGI [58]: > 100 µM
TGI [33]: > 100 µM
TGI [34]: > 100 µM
TGI [35]: > 100 µM
TGI [36]: > 100 µM
TGI [37]: > 100 µM
TGI [38]: > 100 µM
TGI [39]: > 100 µM
TGI [40]: > 100 µM
TGI [41]: > 100 µM
TGI [42]: > 100 µM
TGI [43]: > 100 µM
TGI [59]: > 100 µM
TGI [44]: > 100 µM
TGI [45]: > 100 µM
TGI [46]: > 100 µM
TGI [47]: > 100 µM
TGI [48]: > 100 µM
TGI [49]: > 100 µM
TGI [50]: 83 µM
TGI [51]: > 100 µM
TGI [52]: > 100 µM
TGI [53]: > 100 µM
TGI [54]: > 100 µM

COCOc1cc(OC)c(Br)cc1C/C(=N/O)C(=O)OC
TGI [1]: > 100 µM
TGI [2]: > 100 µM
TGI [3]: > 100 µM
TGI [4]: > 100 µM
TGI [5]: > 100 µM
TGI [6]: > 100 µM
TGI [7]: > 100 µM
TGI [8]: > 100 µM
TGI [9]: > 100 µM
TGI [10]: > 100 µM
TGI [11]: > 100 µM
TGI [12]: > 100 µM
TGI [13]: > 100 µM
TGI [14]: > 100 µM
TGI [16]: 57.3 µM
TGI [17]: > 100 µM
TGI [18]: > 100 µM
TGI [19]: > 100 µM
TGI [20]: > 100 µM
TGI [21]: > 100 µM
TGI [22]: > 100 µM
TGI [23]: > 100 µM
TGI [24]: > 100 µM
TGI [25]: > 100 µM
TGI [26]: > 100 µM
TGI [27]: > 100 µM
TGI [28]: > 100 µM
TGI [29]: > 100 µM
TGI [57]: > 100 µM
TGI [30]: > 100 µM
TGI [31]: > 100 µM
TGI [32]: > 100 µM
TGI [58]: > 100 µM
TGI [33]: > 100 µM
TGI [34]: > 100 µM
TGI [35]: > 100 µM
TGI [36]: > 100 µM
TGI [38]: > 100 µM
TGI [39]: > 100 µM
TGI [40]: > 100 µM
TGI [41]: > 100 µM
TGI [42]: > 100 µM
TGI [43]: > 100 µM
TGI [59]: > 100 µM
TGI [44]: > 100 µM
TGI [45]: > 100 µM
TGI [46]: > 100 µM
TGI [47]: 59.7 µM
TGI [48]: > 100 µM
TGI [49]: > 100 µM
TGI [50]: 70.3 µM
TGI [51]: > 100 µM
TGI [52]: > 100 µM
TGI [53]: > 100 µM
TGI [54]: > 100 µM
TGI [55]: > 100 µM

CCC(C(=O)c1cccs1)C(O)(C(F)(F)F)C(F)(F)F (stereo not given)
TGI [1]: > 100 µM
TGI [56]: > 100 µM
TGI [2]: > 100 µM
TGI [3]: > 100 µM
TGI [4]: > 100 µM
TGI [5]: > 100 µM
TGI [7]: > 100 µM
TGI [8]: > 100 µM
TGI [9]: > 100 µM
TGI [11]: > 100 µM
TGI [12]: > 100 µM
TGI [13]: > 100 µM
TGI [14]: > 100 µM
TGI [15]: > 100 µM
TGI [16]: > 100 µM
TGI [17]: > 100 µM
TGI [18]: > 100 µM
TGI [19]: > 100 µM
TGI [20]: > 100 µM
TGI [21]: > 100 µM
TGI [22]: > 100 µM
TGI [23]: > 100 µM
TGI [24]: > 100 µM
TGI [25]: > 100 µM
TGI [26]: > 100 µM
TGI [27]: > 100 µM
TGI [28]: > 100 µM
TGI [29]: > 100 µM
TGI [57]: > 100 µM
TGI [30]: > 100 µM
TGI [31]: > 100 µM
TGI [32]: > 100 µM
TGI [58]: > 100 µM
TGI [33]: > 100 µM
TGI [34]: > 100 µM
TGI [35]: > 100 µM
TGI [36]: > 100 µM
TGI [37]: > 100 µM
TGI [38]: > 100 µM
TGI [39]: > 100 µM
TGI [40]: > 100 µM
TGI [41]: > 100 µM
TGI [42]: > 100 µM
TGI [43]: > 100 µM
TGI [59]: > 100 µM
TGI [44]: > 100 µM
TGI [45]: > 100 µM
TGI [46]: > 100 µM
TGI [47]: > 100 µM
TGI [48]: > 100 µM
TGI [49]: > 100 µM
TGI [50]: > 100 µM
TGI [51]: > 100 µM
TGI [52]: > 100 µM
TGI [53]: > 100 µM
TGI [54]: > 100 µM
TGI [55]: > 100 µM

From PubChem BioAssay (NCI)
